Test results taken from ChEMBL document CHEMBL1201862, “PubChem BioAssay data set” (2004).
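96-well plates; 48 h exposure; 5 concentrations. Endpoints by linear interpolation between flanking doses. Not reached: highest tested concentration assigned. At the GI50, growth is halved.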 Active and inactive are the calls of the source. No stated cut-off is given here; in the data, active = GI50 up to about 1.1 µM and inactive = higher.

Key:
Test in all cases: NCI anticancer screen, dose series, 48 h
RXF 393 = tested on: RXF 393
SNB-75 = tested on: SNB-75
CCRF-CEM = tested on: CCRF-CEM
UACC-257 = tested on: UACC-257
HCT-116 = tested on: HCT-116
RPMI-8226 = tested on: RPMI-8226
ACHN = tested on: ACHN
A498 = tested on: A498
IGROV-1 = tested on: IGROV-1
NCI-H522 = tested on: NCI-H522
SF-295 = tested on: SF-295
K562 = tested on: K562
NCI-H23 = tested on: NCI-H23
OVCAR-4 = tested on: OVCAR-4
TK-10 = tested on: TK-10
CAKI-1 = tested on: CAKI-1
SK-MEL-5 = tested on: SK-MEL-5
SR = tested on: SR

Measured: GI50

CCC1(CC)C(=O)NC(=S)N=C1N
inactive: RXF 393 > 100 µM | SNB-75 57 µM | CCRF-CEM > 100 µM | UACC-257 > 100 µM | HCT-116 > 100 µM | RPMI-8226 > 100 µM | ACHN > 100 µM | A498 > 100 µM | IGROV-1 > 100 µM | NCI-H522 > 100 µM | SF-295 > 100 µM | K562 > 100 µM | NCI-H23 > 100 µM | OVCAR-4 > 100 µM | TK-10 > 100 µM

CCc1cccc(C)c1NC(=O)C1=C(C)NC(C)=C(C(=O)Nc2c(C)cccc2CC)C1c1ccc([N+](=O)[O-])cc1
inactive: RXF 393 24.4 µM | SNB-75 3.98 µM | CCRF-CEM 27.4 µM | UACC-257 41.8 µM | CAKI-1 25.5 µM | RPMI-8226 15.3 µM | ACHN 18.3 µM | A498 40.8 µM | IGROV-1 29.6 µM | NCI-H522 15.5 µM | SF-295 58.7 µM | K562 23.9 µM | NCI-H23 27.3 µM | SK-MEL-5 34 µM | OVCAR-4 13.4 µM | TK-10 83.9 µM

O=c1[nH]c(=O)n([C@@H]2C[C@H](CO)[C@H](O)C2)cc1/C=C/Br
inactive: SNB-75 > 100 µM | CCRF-CEM > 100 µM | UACC-257 > 100 µM | CAKI-1 > 100 µM | HCT-116 > 100 µM | RPMI-8226 > 100 µM | ACHN > 100 µM | A498 > 100 µM | IGROV-1 > 100 µM | NCI-H522 > 100 µM | SF-295 > 100 µM | K562 > 100 µM | NCI-H23 > 100 µM | SK-MEL-5 > 100 µM | OVCAR-4 > 100 µM | TK-10 > 100 µM

Cc1ccc(NC(=O)CC/C(CC(=O)C(C)(C)C)=N\Nc2ccc([N+](=O)[O-])cc2[N+](=O)[O-])cc1C
inactive: RXF 393 67.5 µM | CCRF-CEM 25.2 µM | UACC-257 > 100 µM | HCT-116 50.5 µM | ACHN 45.8 µM | IGROV-1 90.6 µM | SF-295 32.6 µM | K562 28.3 µM | NCI-H23 46.2 µM | SR 39.7 µM | TK-10 > 100 µM

NC1=NN(c2ccccc2)C(=O)C1C(=O)CCC(=O)Nc1cccc(Cl)c1 (stereo unspecified)
inactive: RXF 393 > 100 µM | SNB-75 > 100 µM | CCRF-CEM > 100 µM | UACC-257 > 100 µM | CAKI-1 > 100 µM | HCT-116 > 100 µM | ACHN > 100 µM | A498 > 100 µM | IGROV-1 > 100 µM | NCI-H522 > 100 µM | SF-295 > 100 µM | K562 > 100 µM | NCI-H23 > 100 µM | SK-MEL-5 > 100 µM | OVCAR-4 > 100 µM | TK-10 > 100 µM

O=c1cc(-c2ccccc2)nc(/C=C(\O)c2ccncc2)n1-c1ccccc1
inactive: RXF 393 > 100 µM | SNB-75 70.1 µM | CCRF-CEM > 100 µM | UACC-257 > 100 µM | CAKI-1 > 100 µM | HCT-116 > 100 µM | ACHN > 100 µM | A498 > 100 µM | IGROV-1 > 100 µM | NCI-H522 > 100 µM | SF-295 > 100 µM | K562 > 100 µM | NCI-H23 > 100 µM | SK-MEL-5 > 100 µM | OVCAR-4 > 100 µM | TK-10 > 100 µM

COc1ccc2[nH]c3c4c(c5cc(C(C)(C)C)ccc5c3c2c1)C(=O)N(c1ccccc1)C4=O
inactive: RXF 393 > 100 µM | SNB-75 57 µM | CCRF-CEM > 10 µM | UACC-257 > 100 µM | CAKI-1 > 100 µM | HCT-116 > 100 µM | RPMI-8226 > 100 µM | A498 24.9 µM | IGROV-1 > 100 µM | NCI-H522 > 100 µM | SF-295 > 100 µM | K562 > 100 µM | NCI-H23 > 100 µM | SK-MEL-5 > 100 µM | OVCAR-4 > 100 µM | TK-10 60.5 µM

CC(C)[C@H](COC(C)(C)C)/N=C/N1CSc2ccccc21
inactive: RXF 393 28.7 µM | SNB-75 30.3 µM | CCRF-CEM 33.1 µM | HCT-116 27.6 µM | RPMI-8226 20.4 µM | ACHN 25.7 µM | A498 46.1 µM | IGROV-1 34 µM | NCI-H522 31.9 µM | SF-295 24.4 µM | K562 33.7 µM | NCI-H23 36.5 µM | SK-MEL-5 25.1 µM | OVCAR-4 27.9 µM | TK-10 51.5 µM

O=C(/N=C(\Nc1ccccc1)SCCS/C(=N/C(=O)c1cccs1)Nc1ccccc1)c1cccs1
inactive: RXF 393 22.6 µM | SNB-75 35.6 µM | CCRF-CEM 34.8 µM | UACC-257 33 µM | CAKI-1 23.3 µM | HCT-116 49 µM | RPMI-8226 36.8 µM | ACHN 43.6 µM | A498 56.9 µM | IGROV-1 > 100 µM | NCI-H522 20.9 µM | SF-295 52.7 µM | K562 35.2 µM | NCI-H23 46.2 µM | SK-MEL-5 21.5 µM | OVCAR-4 30.3 µM | TK-10 > 100 µM

CCCCCCCCCCCCC(Br)C(C)=O (stereo unspecified)
inactive: RXF 393 > 100 µM | CCRF-CEM > 100 µM | UACC-257 > 100 µM | HCT-116 > 100 µM | ACHN > 100 µM | A498 > 100 µM | IGROV-1 > 100 µM | NCI-H522 > 100 µM | SF-295 > 100 µM | NCI-H23 > 100 µM | SK-MEL-5 > 100 µM | OVCAR-4 > 100 µM | TK-10 > 100 µM

COc1ccc(/C=N/N=C(\N)NO)c(Cl)c1O
inactive: RXF 393 16.5 µM | CCRF-CEM 14.7 µM | UACC-257 20.2 µM | CAKI-1 10.3 µM | HCT-116 15.2 µM | RPMI-8226 36 µM | ACHN 14.9 µM | IGROV-1 44.9 µM | NCI-H522 6.82 µM | SF-295 4.9 µM | K562 3.63 µM | NCI-H23 23.7 µM | SK-MEL-5 5.11 µM | OVCAR-4 15.8 µM

COC(c1ccccc1)C(c1ccccc1)N1CCOCC1 (stereo unspecified)
inactive: RXF 393 > 100 µM | SNB-75 > 100 µM | CCRF-CEM > 100 µM | UACC-257 > 100 µM | CAKI-1 > 100 µM | HCT-116 > 100 µM | RPMI-8226 49.7 µM | ACHN > 100 µM | A498 > 100 µM | IGROV-1 > 100 µM | NCI-H522 > 100 µM | SF-295 > 100 µM | K562 > 100 µM | NCI-H23 > 100 µM | SK-MEL-5 > 100 µM | OVCAR-4 > 100 µM | TK-10 > 100 µM

Cc1ccc(NC(=O)NC23CC4CC(CC(F)(C4)C2)C3)cc1
inactive: RXF 393 > 100 µM | SNB-75 25.2 µM | CCRF-CEM 56.4 µM | UACC-257 > 100 µM | HCT-116 41.3 µM | RPMI-8226 28.3 µM | ACHN > 100 µM | A498 > 100 µM | IGROV-1 > 100 µM | NCI-H522 99.5 µM | K562 44.6 µM | NCI-H23 99.3 µM | SK-MEL-5 > 100 µM | TK-10 > 100 µM
